Measured values from PubChem BioAssay (NCI).
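Step 1: Grow cells in 96-well plates. Step 2: Expose to compound for 48 hours at 5 concentrations. Step 3: Interpolate endpoints linearly; if unreached, use highest concentration. GI50 marks 50% less growth. TGI: concentration producing complete growth inhibition.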

What was measured:
Experiment in all cases: NCI anticancer screen, dose series, 48 h
DU-145 prostate = tested on: DU-145 prostate
IGROV1 ovarian = tested on: IGROV1 ovarian
RPMI-8226 leukemia = tested on: RPMI-8226 leukemia
NCI-H522 lung = tested on: NCI-H522 lung
HT29 colon = tested on: HT29 colon
ACHN renal = tested on: ACHN renal
PC-3 prostate = tested on: PC-3 prostate
SK-MEL-2 melanoma = tested on: SK-MEL-2 melanoma
MCF7 breast = tested on: MCF7 breast
RXF 393 renal = tested on: RXF 393 renal
MOLT-4 leukemia = tested on: MOLT-4 leukemia
COLO 205 colon = tested on: COLO 205 colon
UO-31 renal = tested on: UO-31 renal
SK-OV-3 ovarian = tested on: SK-OV-3 ovarian
HS 578T breast = tested on: HS 578T breast
SF-268 CNS = tested on: SF-268 CNS
MDA-MB-231 breast = tested on: MDA-MB-231 breast
LOX IMVI melanoma = tested on: LOX IMVI melanoma
SW-620 colon = tested on: SW-620 colon
EKVX NSCLC = tested on: EKVX NSCLC
CAKI-1 renal = tested on: CAKI-1 renal
NCI-H23 lung = tested on: NCI-H23 lung
SNB-19 CNS = tested on: SNB-19 CNS
NCI/ADR-RES ovarian = tested on: NCI/ADR-RES ovarian
SN12C renal = tested on: SN12C renal
K-562 leukemia = tested on: K-562 leukemia
HOP-62 NSCLC = tested on: HOP-62 NSCLC
UACC-62 melanoma = tested on: UACC-62 melanoma
KM12 colon = tested on: KM12 colon
OVCAR-8 ovarian = tested on: OVCAR-8 ovarian
T-47D breast = tested on: T-47D breast
786-0 renal = tested on: 786-0 renal
UACC-257 melanoma = tested on: UACC-257 melanoma
TK-10 renal = tested on: TK-10 renal
HL-60(TB) leukemia = tested on: HL-60(TB) leukemia
HCT-15 colon = tested on: HCT-15 colon
MDA-MB-435 = tested on: MDA-MB-435
BT-549 breast = tested on: BT-549 breast
U251 CNS = tested on: U251 CNS
HCC-2998 colon = tested on: HCC-2998 colon
HOP-92 NSCLC = tested on: HOP-92 NSCLC
SF-295 CNS = tested on: SF-295 CNS
SF-539 CNS = tested on: SF-539 CNS
SNB-75 CNS = tested on: SNB-75 CNS
NCI-H226 lung = tested on: NCI-H226 lung
M14 melanoma = tested on: M14 melanoma
A498 renal = tested on: A498 renal
OVCAR-5 ovarian = tested on: OVCAR-5 ovarian
CCRF-CEM leukemia = tested on: CCRF-CEM leukemia
A549 NSCLC = tested on: A549 NSCLC
OVCAR-3 ovarian = tested on: OVCAR-3 ovarian
OVCAR-4 ovarian = tested on: OVCAR-4 ovarian
SK-MEL-28 melanoma = tested on: SK-MEL-28 melanoma
MALME-3M melanoma = tested on: MALME-3M melanoma
NCI-H460 lung = tested on: NCI-H460 lung
HCT-116 colon = tested on: HCT-116 colon

**Q.** `COc1ccc(-c2nc(S(=O)(=O)c3ccccc3)c(S(=O)CC(=O)N3CCC(C)CC3)o2)cc1` (configuration not stated) was tested. Which GI50 (DU-145 prostate) did it give?
**A.** 1.37 µM

**Q.** What about the TGI (DU-145 prostate) of the same compound?
**A.** 2.72 µM

**Q.** And the GI50 (IGROV1 ovarian)?
**A.** 2.17 µM

**Q.** What about the TGI (IGROV1 ovarian) of the same compound?
**A.** 6.27 µM

**Q.** What about the GI50 (RPMI-8226 leukemia) of the same compound?
**A.** 1.25 µM

**Q.** And the TGI (RPMI-8226 leukemia)?
**A.** 4.02 µM

**Q.** And the GI50 (NCI-H522 lung)?
**A.** 1.44 µM

**Q.** And the TGI (NCI-H522 lung)?
**A.** 3.39 µM

**Q.** And the GI50 (HT29 colon)?
**A.** 2.58 µM

**Q.** What about the TGI (HT29 colon) of the same compound?
**A.** 10.1 µM

**Q.** What about the GI50 (ACHN renal) of the same compound?
**A.** 1.68 µM

**Q.** What about the TGI (ACHN renal) of the same compound?
**A.** 3.13 µM

**Q.** What about the GI50 (PC-3 prostate) of the same compound?
**A.** 3.55 µM

**Q.** What about the TGI (PC-3 prostate) of the same compound?
**A.** 15.7 µM

**Q.** What about the GI50 (SK-MEL-2 melanoma) of the same compound?
**A.** 3.19 µM

**Q.** And the TGI (SK-MEL-2 melanoma)?
**A.** 9.83 µM

**Q.** What about the GI50 (MCF7 breast) of the same compound?
**A.** 1.45 µM

**Q.** And the TGI (MCF7 breast)?
**A.** 3.44 µM

**Q.** And the GI50 (RXF 393 renal)?
**A.** 1.68 µM

**Q.** What about the TGI (RXF 393 renal) of the same compound?
**A.** 3.25 µM

**Q.** And the GI50 (MOLT-4 leukemia)?
**A.** 2.09 µM

**Q.** And the TGI (MOLT-4 leukemia)?
**A.** 5.71 µM

**Q.** What about the GI50 (COLO 205 colon) of the same compound?
**A.** 2.04 µM

**Q.** What about the TGI (COLO 205 colon) of the same compound?
**A.** 3.86 µM

**Q.** What about the GI50 (UO-31 renal) of the same compound?
**A.** 1.26 µM

**Q.** What about the TGI (UO-31 renal) of the same compound?
**A.** 2.57 µM

**Q.** What about the GI50 (SK-OV-3 ovarian) of the same compound?
**A.** 12.9 µM

**Q.** And the TGI (SK-OV-3 ovarian)?
**A.** 26.5 µM

**Q.** And the GI50 (HS 578T breast)?
**A.** 5.86 µM

**Q.** And the TGI (HS 578T breast)?
**A.** 27 µM

**Q.** And the GI50 (SF-268 CNS)?
**A.** 3.78 µM

**Q.** And the TGI (SF-268 CNS)?
**A.** 14.9 µM

**Q.** And the GI50 (MDA-MB-231 breast)?
**A.** 1.91 µM

**Q.** What about the TGI (MDA-MB-231 breast) of the same compound?
**A.** 4.08 µM

**Q.** What about the GI50 (LOX IMVI melanoma) of the same compound?
**A.** 1.72 µM

**Q.** And the TGI (LOX IMVI melanoma)?
**A.** 3.25 µM

**Q.** What about the GI50 (SW-620 colon) of the same compound?
**A.** 1.73 µM

**Q.** What about the TGI (SW-620 colon) of the same compound?
**A.** 4.36 µM

**Q.** What about the GI50 (EKVX NSCLC) of the same compound?
**A.** 3.69 µM

**Q.** And the TGI (EKVX NSCLC)?
**A.** 13.7 µM

**Q.** What about the GI50 (CAKI-1 renal) of the same compound?
**A.** 2.28 µM

**Q.** And the TGI (CAKI-1 renal)?
**A.** 6.7 µM

**Q.** And the GI50 (NCI-H23 lung)?
**A.** 3.12 µM

**Q.** And the TGI (NCI-H23 lung)?
**A.** 12.1 µM

**Q.** And the GI50 (SNB-19 CNS)?
**A.** 6.43 µM

**Q.** What about the TGI (SNB-19 CNS) of the same compound?
**A.** 19.1 µM

**Q.** And the GI50 (NCI/ADR-RES ovarian)?
**A.** 3.1 µM

**Q.** And the TGI (NCI/ADR-RES ovarian)?
**A.** 12 µM

**Q.** And the GI50 (SN12C renal)?
**A.** 1.9 µM

**Q.** What about the TGI (SN12C renal) of the same compound?
**A.** 3.6 µM

**Q.** And the GI50 (K-562 leukemia)?
**A.** 0.198 µM

**Q.** And the TGI (K-562 leukemia)?
**A.** 3.03 µM

**Q.** And the GI50 (HOP-62 NSCLC)?
**A.** 8.12 µM

**Q.** And the TGI (HOP-62 NSCLC)?
**A.** 21 µM

**Q.** What about the GI50 (UACC-62 melanoma) of the same compound?
**A.** 1.67 µM

**Q.** And the TGI (UACC-62 melanoma)?
**A.** 3.6 µM

**Q.** And the GI50 (KM12 colon)?
**A.** 4.72 µM

**Q.** And the TGI (KM12 colon)?
**A.** 16.7 µM

**Q.** And the GI50 (OVCAR-8 ovarian)?
**A.** 2.44 µM

**Q.** What about the TGI (OVCAR-8 ovarian) of the same compound?
**A.** 6.59 µM

**Q.** And the GI50 (T-47D breast)?
**A.** 1.71 µM

**Q.** And the TGI (T-47D breast)?
**A.** 4.09 µM

**Q.** And the GI50 (786-0 renal)?
**A.** 1.92 µM

**Q.** And the TGI (786-0 renal)?
**A.** 4.05 µM

**Q.** What about the GI50 (UACC-257 melanoma) of the same compound?
**A.** 2.1 µM

**Q.** And the TGI (UACC-257 melanoma)?
**A.** 5.05 µM

**Q.** What about the GI50 (TK-10 renal) of the same compound?
**A.** 1.91 µM

**Q.** And the TGI (TK-10 renal)?
**A.** 3.85 µM

**Q.** And the GI50 (HL-60(TB) leukemia)?
**A.** 1.61 µM

**Q.** And the TGI (HL-60(TB) leukemia)?
**A.** 8.35 µM

**Q.** And the GI50 (HCT-15 colon)?
**A.** 1.27 µM

**Q.** What about the TGI (HCT-15 colon) of the same compound?
**A.** 2.86 µM

**Q.** And the GI50 (MDA-MB-435)?
**A.** 2.55 µM

**Q.** And the TGI (MDA-MB-435)?
**A.** 6.56 µM

**Q.** What about the GI50 (BT-549 breast) of the same compound?
**A.** 1.73 µM

**Q.** And the TGI (BT-549 breast)?
**A.** 3.77 µM

**Q.** What about the GI50 (U251 CNS) of the same compound?
**A.** 3.06 µM

**Q.** What about the TGI (U251 CNS) of the same compound?
**A.** 10.6 µM

**Q.** What about the GI50 (HCC-2998 colon) of the same compound?
**A.** 14 µM

**Q.** What about the TGI (HCC-2998 colon) of the same compound?
**A.** 28.8 µM

**Q.** And the GI50 (HOP-92 NSCLC)?
**A.** 1.62 µM

**Q.** What about the TGI (HOP-92 NSCLC) of the same compound?
**A.** 3.63 µM

**Q.** And the GI50 (SF-295 CNS)?
**A.** 6.44 µM

**Q.** And the TGI (SF-295 CNS)?
**A.** 19.4 µM

**Q.** And the GI50 (SF-539 CNS)?
**A.** 1.8 µM

**Q.** What about the TGI (SF-539 CNS) of the same compound?
**A.** 3.52 µM

**Q.** And the GI50 (SNB-75 CNS)?
**A.** 4.16 µM

**Q.** What about the TGI (SNB-75 CNS) of the same compound?
**A.** 15.2 µM

**Q.** What about the GI50 (NCI-H226 lung) of the same compound?
**A.** 2.37 µM

**Q.** What about the TGI (NCI-H226 lung) of the same compound?
**A.** 6.25 µM

**Q.** And the GI50 (M14 melanoma)?
**A.** 1.89 µM

**Q.** What about the TGI (M14 melanoma) of the same compound?
**A.** 4.21 µM

**Q.** What about the GI50 (A498 renal) of the same compound?
**A.** 2.46 µM

**Q.** And the TGI (A498 renal)?
**A.** 9.79 µM

**Q.** What about the GI50 (OVCAR-5 ovarian) of the same compound?
**A.** 2.99 µM

**Q.** And the TGI (OVCAR-5 ovarian)?
**A.** 8.58 µM

**Q.** What about the GI50 (CCRF-CEM leukemia) of the same compound?
**A.** 2.82 µM

**Q.** And the TGI (CCRF-CEM leukemia)?
**A.** 8.63 µM

**Q.** What about the GI50 (A549 NSCLC) of the same compound?
**A.** 7.59 µM

**Q.** What about the TGI (A549 NSCLC) of the same compound?
**A.** 21.1 µM

**Q.** And the GI50 (OVCAR-3 ovarian)?
**A.** 1.33 µM

**Q.** What about the TGI (OVCAR-3 ovarian) of the same compound?
**A.** 2.74 µM

**Q.** And the GI50 (OVCAR-4 ovarian)?
**A.** 3.31 µM

**Q.** And the TGI (OVCAR-4 ovarian)?
**A.** 13 µM

**Q.** And the GI50 (SK-MEL-28 melanoma)?
**A.** 2.15 µM

**Q.** What about the TGI (SK-MEL-28 melanoma) of the same compound?
**A.** 4.36 µM

**Q.** And the GI50 (MALME-3M melanoma)?
**A.** 1.94 µM

**Q.** What about the TGI (MALME-3M melanoma) of the same compound?
**A.** 3.67 µM

**Q.** And the GI50 (NCI-H460 lung)?
**A.** 5.95 µM

**Q.** And the TGI (NCI-H460 lung)?
**A.** 20.6 µM

**Q.** And the GI50 (HCT-116 colon)?
**A.** 1.72 µM

**Q.** What about the TGI (HCT-116 colon) of the same compound?
**A.** 3.2 µM
